Kd data for five compounds are collected here from article PMC7642680, “The Nontypeable Haemophilus influenzae Major Adhesin Hia Is a Dual-Function Lectin That Binds to Human-Specific Respiratory Tract Sialic Acid Glycan Receptors” (mBio, 2020).

Structures are written as SMILES. Like-named read-outs stand apart in the source and are kept apart here.

Assay [1] deals with Hia BD1 (binding domain 1) (Haemophilus influenzae, UniProt Q8GM79). Description: SPR, purified BD1 immobilised (Biacore CM5 amine capture). The note with it: 1x PBS pH 7.4; single-cycle kinetics.
In assay [2] the target is T1, Hia (full-length, expressed on E. coli BL21) (Haemophilus influenzae, UniProt Q8GM79, A619R). Conditions: read-out: NB, OneStep injection at 10 μM, whole cells. The text has this: SPR, OneStep injection, Hia-expressing BL21 cells on Hia (full-length, expressed on E. coli BL21)
Assay [3] concerns the target T2, Hia (full-length, expressed on E. coli BL21) (Haemophilus influenzae, UniProt Q8GM79).
T2 construct: trimeric autotransporter
Description: SPR, Hia-expressing BL21 cells immobilised (Biacore C1 chip). It counts as cell-based. The note with it: 1x PBS pH 7.4; single-cycle kinetics; whole cells. For orientation: SPR reads the build-up and loss of mass on a sensor chip optically.

In assay [4] the target is Hia (full-length, expressed on E. coli BL21) (Haemophilus influenzae, UniProt Q8GM79, D618K). Conditions: 1x PBS pH 7.4, whole cells. The text has this: (§1) SPR, Hia-expressing BL21 cells immobilised (Biacore C1 chip) on Hia (full-length, expressed on E. coli BL21)
The target in assay [5] is T1, Hia (full-length, expressed on E. coli BL21). The note with it: read-out: 2-3 SLN-Ac; 1x PBS pH 7.4; whole cells.
From the text: as §1

As for `CC(=O)N[C@H]1[C@H]([C@H](O)[C@H](O)CO)O[C@](OC[C@H]2O[C@@H](O[C@H]3[C@H](O)[C@@H](NC(C)=O)C(O)O[C@@H]3CO)[C@H](O)[C@@H](O)[C@H]2O)(C(=O)O)C[C@@H]1O` (stereo partly shown) [2-6 SLN-Ac], the Kd in assay [1] is 0.0649 ± 0.0056 µM; in assay [2] it was > 10 µM; in assay [3], 0.185 ± 0.0599 µM; in assay [4] (read-out: 2-6 SLN-Ac) it was 0.021 ± 0.001 µM.
The compound `CC(=O)N[C@H]1[C@H](O[C@H]2[C@@H](O)[C@@H](CO)O[C@@H](O[C@H]3[C@H](O)[C@@H](O)C(O)O[C@@H]3CO)[C@@H]2O)O[C@H](CO)[C@@H](O[C@@H]2O[C@H](CO)[C@H](O)[C@H](O[C@@]3(C(=O)O)C[C@H](O)[C@@H](NC(C)=O)[C@H]([C@H](O)[C@H](O)CO)O3)[C@H]2O)[C@@H]1O` (stereo partly shown) [2-3 Ac-SLNnT] displayed a Kd in assay [3] of 2.03 ± 1.49 µM.
In assay [3], `CC(=O)N[C@H]1[C@H](O[C@H]2[C@@H](O)[C@@H](CO)O[C@@H](O[C@H]3[C@H](O)[C@@H](O)C(O)O[C@@H]3CO)[C@@H]2O)O[C@H](CO)[C@@H](O[C@@H]2O[C@H](CO)[C@H](O)[C@H](O[C@@]3(C(=O)O)C[C@H](O)[C@@H](NC(=O)CO)[C@H]([C@H](O)[C@H](O)CO)O3)[C@H]2O)[C@@H]1O` (stereo partly shown) [2-3 Gc-SLNnT] showed a Kd of 5.44 ± 1.11 µM.
Take `CC(=O)N[C@H]1[C@H]([C@H](O)[C@H](O)CO)O[C@@](O[C@H]2[C@@H](O)[C@@H](CO)O[C@@H](O[C@H]3[C@H](O)[C@@H](NC(C)=O)C(O)O[C@@H]3CO)[C@@H]2O)(C(=O)O)C[C@@H]1O` (stereo partly shown) [2-3 SLN-Ac]: the values for the Kd in assay [3], in assay [5] and in assay [4] (read-out: 2-3 SLN-Ac) were 2.03 ± 0.443 µM, 3.04 ± 0.7 µM and 0.842 ± 0.178 µM, respectively.
For `CC(=O)N[C@H]1C(O)O[C@H](CO)[C@@H](O[C@@H]2O[C@H](CO)[C@H](O)[C@H](O[C@@]3(C(=O)O)C[C@H](O)[C@@H](NC(=O)CO)[C@H]([C@H](O)[C@H](O)CO)O3)[C@H]2O)[C@@H]1O` (stereo partly shown) [2-3 SLN-Gc], in assay [3], the Kd was determined as 10.1 ± 0.32 µM.
